Target: T1, IMPDH1 (murine retinal) (Mus musculus, UniProt P50096)
T1 construct: native, murine retina
Test: IMPDH1 spicule formation in retinas treated with […] MPA; SDS-PAGE mobility shift after injection of its prodrug MMF
Type: cell-based

T1 sequence (P50096 whole entry): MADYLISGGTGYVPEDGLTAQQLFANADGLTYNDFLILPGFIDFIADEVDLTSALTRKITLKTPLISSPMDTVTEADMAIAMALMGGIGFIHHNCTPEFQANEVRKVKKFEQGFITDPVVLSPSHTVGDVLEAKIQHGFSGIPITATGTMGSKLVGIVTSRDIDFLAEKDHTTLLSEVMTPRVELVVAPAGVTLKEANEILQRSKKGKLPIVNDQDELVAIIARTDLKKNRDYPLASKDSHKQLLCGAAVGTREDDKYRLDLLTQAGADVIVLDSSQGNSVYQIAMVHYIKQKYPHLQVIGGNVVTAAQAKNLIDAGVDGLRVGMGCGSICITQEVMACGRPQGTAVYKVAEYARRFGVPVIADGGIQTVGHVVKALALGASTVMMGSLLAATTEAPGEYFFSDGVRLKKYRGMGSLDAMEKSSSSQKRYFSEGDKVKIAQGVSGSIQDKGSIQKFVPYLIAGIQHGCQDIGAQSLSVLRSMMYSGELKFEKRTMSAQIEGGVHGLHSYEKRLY

COc1c(C)c2c(c(O)c1C/C=C(\C)CCC(=O)O)C(=O)OC2 [mycophenolic acid]
IMPDH1 spicule formation in retinas treated with 10 μM MPA; SDS-PAGE mobility sh: MPA inhibition of IMPDH1 resulted in the formation and accumulation of IMPDH1 spicules with time

Source: paper PMC7176436, “Post-translational regulation of retinal IMPDH1 in vivo to adjust GTP synthesis to illumination conditions” (eLife, 2020)
